In US20250302748A1, “METHOD FOR ENHANCING THE EFFICIENCY OF DRUG LOADING INTO EXTRACELLULAR VESICLES AND MEDICINAL PRODUCTS THEREOF” (Shine-On BioMedical CO., LTD., priority 2024, published 2025):
Where a name gives a salt, the structure may show the parent alone.

Assays:
[1] = system: breast cancer cells (MDA-MB-231); test: Orthotopic breast cancer animal model, IVIS luminescence; format: in vivo, mice; details: day 49, two weeks after final administration; tail vein injections for six weeks; luminescence converted into tumor volume
Description: Referring to FIG. 9C, a breast cancer animal model was applied to evaluate the efficacy and biocompatibility of exosome 10 loaded with the target drug. In this experiment, the breast cancer animal model was constructed by injecting the breast cancer cells (MDA-MB-231) orthotopically into the mammary fat pad of the mice and then culturing the breast cancer cells into tumor. The mice were divided into drug treatment groups 1 to 3 and control group 1. The breast cancer animal model in drug treatment groups 1 to 3 were received the target drug directly (Dox-HCl), the liposome injection loaded with the target drug Dox-HCl (Dox@Lipo), and the exosomes 10 loaded with the target drug Dox-HCl (Dox@EXO) respectively; the control group 1 is the group treated with a placebo (PBS) (Ctrl).
Each group (groups 1-3 and control group 1) of the breast cancer animal model described above was received tail vein injections continuously for six weeks administration following the injection of breast cancer cells (MDA-MB-231). Tumor development was monitored and imaged using an in vivo imaging system (IVIS Imaging System), which measured tumor progression based on a luminescence signal of the tumor.

[2] = Safety study with serum biochemical analysis after third weekly administration; format: in vivo, Immunocompetent mice
Description: Furthermore, to confirm that exosome 10 retains its biocompatibility after loading the target drug and is safe for in vivo use, please refer to Table 5, an animal model is applied to evaluate the safety. Immunocompetent mice were divided into control group (Control), vehicle control group (Vehicle control), drug treatment group (Dox), and exosome treatment groups 1-3 (Dox@EXO 1-3). The groups above were weekly administered Lactated Ringer's solution, the exosomes 10, the target drug (Doxorubicin, Dox-HCl), and the exosomes 10 loaded with the target drug Dox-HCl (Dox@EXO) in concentrations of 2 mg/kg, 6 mg/kg, and 12 mg/kg respectively. After receiving the third administration, blood samples were collected for serum biochemical analysis to monitor organ function.

[3] = 12 mg/kg weekly, after third administration, serum

With `COc1cccc2c1C(=O)c1c(O)c3c(c(O)c1C2=O)C[C@@](O)(C(=O)CO)C[C@@H]3O[C@H]1C[C@H](N)[C@H](O)[C@H](C)O1` [Dox-HCl, Doxorubicin hydrochloride] the “Inhibition rate of tumor growth” value [1] was 73.8%, the “ALB (Albumin)” value [2, 3] was 2.68 g/dL and the “ALP (Alkaline Phosphatase)” value [2, 3] was 182.52 U/L. The ALT [2, 3] was 29.52 U/L, the “AMY (Amylase)” value [2, 3] was 3424.8 U/L and the AST [2, 3] was 76.88 U/L. For the same compound, the “CK (Creatine kinase)” value [2, 3] was 236.06 U/L, the “LDH (Lactate Dehydrogenase)” value [2, 3] was 648.28 U/L and the “Difference in serum biochemical parameters versus control group (One-way ANOVA)” value ([2]; Dox 12 mg/kg, Dox@EXO 2, 6 and 12 mg/kg) was “significant differences in liver function markers such as albumin (ALB) and alkaline phosphatase (ALP)”.
